Activity calls are given as the source filed them. No cut-off for these calls is given here.
Tests used:
Mus musculus [1] = assay: Antidepressant activity in chronic social defeat stress induced depressive C57BL/6J mouse model assessed as increase in time of interaction zone administered intragastrically measured after 15 mins by open field test; assay type: functional, organism-based; details: dose 0.5-2 mg/kg
[2] = Toxicity in female Sprague-Dawley rat assessed as minimal corneal neovascularization at 2.5 to 7.5 mg/kg, po administered once daily for 4 weeks and measured after 4 weeks; assay type: organism-based; details: in vivo, 1344 h, dose 2.5-7.5 mg/kg, time 8 weeks
[3] = Toxicity in Sprague-Dawley rat assessed as catalepsy 2.5 to 7.5 mg/kg, po administered once daily for 4 weeks; assay type: organism-based; details: in vivo, 672 h, dose 2.5-7.5 mg/kg
[4] = molecular target: 5-hydroxytryptamine receptor 2C (Rattus norvegicus) (UniProt P08909); assay: Agonist activity at rat 5-HT2CR by measuring maximum efficacy relative to control; assay type: functional; details: filed as agonist
Chain of 5-hydroxytryptamine receptor 2C (Rattus norvegicus) (P08909 whole entry): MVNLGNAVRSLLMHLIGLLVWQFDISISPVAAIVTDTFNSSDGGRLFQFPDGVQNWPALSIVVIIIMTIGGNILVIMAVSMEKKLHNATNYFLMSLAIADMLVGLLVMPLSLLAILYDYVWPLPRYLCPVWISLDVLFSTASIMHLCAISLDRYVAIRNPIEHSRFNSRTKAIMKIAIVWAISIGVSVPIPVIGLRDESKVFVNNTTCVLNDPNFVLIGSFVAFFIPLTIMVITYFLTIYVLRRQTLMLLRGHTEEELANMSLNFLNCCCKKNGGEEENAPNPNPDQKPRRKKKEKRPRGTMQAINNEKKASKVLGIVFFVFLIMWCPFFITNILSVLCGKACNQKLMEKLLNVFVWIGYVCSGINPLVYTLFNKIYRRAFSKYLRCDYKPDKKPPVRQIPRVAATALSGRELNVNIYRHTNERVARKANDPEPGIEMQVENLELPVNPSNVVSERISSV

[5] = Toxicity in female Beagle dog assessed as change in hematology at 0.75 to 2.5 mg/kg, IG administered once daily for 4 weeks and measured after 4 weeks; assay type: organism-based, Canis lupus familiaris; details: in vivo, po, 1344 h, dose 0.75-2.5 mg/kg, time 8 weeks
[6] = Toxicity in female Sprague-Dawley rat assessed as slow respiration at 7.5 mg/kg, po administered once daily for 4 weeks and measured after 4 weeks; assay type: organism-based; details: in vivo, 1344 h, time 8 weeks
[7] = Plasma protein binding in human assessed as unbound fraction by LC-MS/MS analysis; assay type: ADME, cell-free
[8] = Toxicity in female Sprague-Dawley rat assessed as piloerection at 7.5 mg/kg, po administered once daily for 4 weeks and measured after 4 weeks; assay type: organism-based; details: in vivo, 1344 h, time 8 weeks
[9] = Toxicity in male Sprague-Dawley rat assessed as change in prolactin level at 2.5 to 7.5 mg/kg, po administered once daily for 4 weeks and measured after 4 weeks; assay type: organism-based; details: in vivo, 1344 h, dose 2.5-7.5 mg/kg, time 8 weeks
[10] = molecular target: Trace amine-associated receptor 1 (Rattus norvegicus, UniProt Q923Y9); assay: Agonist activity at rat TAAR1; assay type: functional
Chain of Trace amine-associated receptor 1 (Q923Y9 whole entry): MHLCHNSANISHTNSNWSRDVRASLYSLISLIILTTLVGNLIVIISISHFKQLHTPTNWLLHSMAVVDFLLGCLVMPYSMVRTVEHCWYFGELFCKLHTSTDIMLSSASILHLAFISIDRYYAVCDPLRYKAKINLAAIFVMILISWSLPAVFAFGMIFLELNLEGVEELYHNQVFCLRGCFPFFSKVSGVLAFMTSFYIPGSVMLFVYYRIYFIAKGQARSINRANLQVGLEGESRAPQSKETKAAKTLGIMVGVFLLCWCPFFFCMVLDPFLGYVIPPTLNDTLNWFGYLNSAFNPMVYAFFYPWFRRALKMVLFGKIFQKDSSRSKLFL

[11] = Toxicity in female Beagle dog assessed as minimal decrease activity at 2.5 mg/kg, IG administered once daily for 4 weeks; assay type: organism-based, Canis lupus familiaris; details: in vivo, po, 672 h
[12] = Toxicity in male Beagle dog assessed as change in hematology at 0.75 to 2.5 mg/kg, IG administered once daily for 4 weeks and measured after 4 weeks; assay type: organism-based, Canis lupus familiaris; details: in vivo, po, 1344 h, dose 0.75-2.5 mg/kg, time 8 weeks
[13] = Metabolic stability in rat liver microsomes assessed as intrinsic clearance at 1 uM incubated for 60 mins by LC-MS/MS analysis; assay type: ADME, Microsome; details: read-out: CLH
[14] = molecular target: Muscarinic acetylcholine receptor M1 (Homo sapiens) (UniProt P11229); assay: Binding affinity to M1 receptor (unknown origin) at 10 uM by radioligand binding assay relative to control
Chain of Muscarinic acetylcholine receptor M1 (Homo sapiens) (P11229 whole entry): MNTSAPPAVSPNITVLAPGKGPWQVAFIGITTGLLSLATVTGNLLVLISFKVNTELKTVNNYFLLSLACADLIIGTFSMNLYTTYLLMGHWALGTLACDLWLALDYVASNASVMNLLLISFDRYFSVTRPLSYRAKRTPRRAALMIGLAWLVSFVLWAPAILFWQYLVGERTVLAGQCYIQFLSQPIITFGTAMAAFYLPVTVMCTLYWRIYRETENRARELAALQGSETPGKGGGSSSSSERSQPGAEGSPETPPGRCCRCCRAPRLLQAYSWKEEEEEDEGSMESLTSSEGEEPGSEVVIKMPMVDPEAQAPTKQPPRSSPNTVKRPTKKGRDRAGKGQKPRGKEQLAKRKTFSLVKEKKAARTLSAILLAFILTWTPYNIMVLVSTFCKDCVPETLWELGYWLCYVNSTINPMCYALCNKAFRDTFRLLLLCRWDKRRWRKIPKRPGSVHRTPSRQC

Mus musculus [15] = assay: Antipsychotic activity against DOI-induced head-twitch response in mouse assessed as reduction in head-twitch response administered intragastrically and measured for 30 mins; assay type: functional, organism-based; details: dose 1-10 mg/kg
[16] = Toxicity in male Sprague-Dawley rat assessed as irritability at 7.5 mg/kg, po administered once daily for 4 weeks and measured after 4 weeks; assay type: organism-based; details: in vivo, 1344 h, time 8 weeks
[17] = molecular target: Glucocorticoid receptor (Homo sapiens) (UniProt P04150); assay: Binding affinity to GR receptor (unknown origin) at 10 uM by radioligand binding assay relative to control
Chain of Glucocorticoid receptor (Homo sapiens) (P04150 whole entry): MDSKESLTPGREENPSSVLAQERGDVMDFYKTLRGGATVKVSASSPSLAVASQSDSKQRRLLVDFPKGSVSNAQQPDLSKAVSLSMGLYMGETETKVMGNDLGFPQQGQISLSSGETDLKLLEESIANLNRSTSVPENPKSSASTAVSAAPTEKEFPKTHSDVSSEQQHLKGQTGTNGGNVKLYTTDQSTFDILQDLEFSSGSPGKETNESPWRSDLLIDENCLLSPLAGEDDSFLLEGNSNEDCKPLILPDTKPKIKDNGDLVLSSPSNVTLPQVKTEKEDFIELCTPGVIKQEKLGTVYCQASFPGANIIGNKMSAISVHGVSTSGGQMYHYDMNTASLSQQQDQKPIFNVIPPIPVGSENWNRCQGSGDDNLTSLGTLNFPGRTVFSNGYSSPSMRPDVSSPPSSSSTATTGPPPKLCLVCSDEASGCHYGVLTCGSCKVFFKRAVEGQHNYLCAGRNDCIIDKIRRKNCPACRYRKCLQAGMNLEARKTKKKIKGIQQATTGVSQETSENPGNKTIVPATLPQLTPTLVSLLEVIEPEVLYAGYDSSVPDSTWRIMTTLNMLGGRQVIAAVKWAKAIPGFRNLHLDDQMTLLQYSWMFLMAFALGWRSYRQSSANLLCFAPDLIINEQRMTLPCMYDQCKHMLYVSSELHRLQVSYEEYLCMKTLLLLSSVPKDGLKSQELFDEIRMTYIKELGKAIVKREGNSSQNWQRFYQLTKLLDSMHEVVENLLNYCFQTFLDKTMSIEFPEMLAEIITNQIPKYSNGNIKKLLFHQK

[18] = Mutagenicity in Salmonella typhimurium TA1535 by Ames test; assay type: toxicity; details: salmonella enterica subsp. enterica serovar typhimurium
[19] = Toxicity in male Beagle dog assessed as minimal decrease activity at 2.5 mg/kg, IG administered once daily for 4 weeks; assay type: organism-based, Canis lupus familiaris; details: in vivo, po, 672 h
[20] = Toxicity in Sprague-Dawley rat assessed as animal death 2.5 to 7.5 mg/kg, po administered once daily for 4 weeks; assay type: organism-based; details: in vivo, 672 h, dose 2.5-7.5 mg/kg
[21] = Toxicity in male Sprague-Dawley rat assessed as change in hematology at 2.5 to 7.5 mg/kg, po administered once daily for 4 weeks and measured after 4 weeks; assay type: organism-based; details: in vivo, 1344 h, dose 2.5-7.5 mg/kg, time 8 weeks
[22] = Toxicity in male Beagle dog assessed as somnolence at 2.5 mg/kg, IG administered once daily for 4 weeks and measured after 4 weeks; assay type: organism-based, Canis lupus familiaris; details: in vivo, po, 1344 h, time 8 weeks
[23] = molecular target: Tyrosine-protein kinase Lck (Homo sapiens) (UniProt P06239); assay: Binding affinity to LCK receptor (unknown origin) at 10 uM by radioligand binding assay relative to control
Chain of Tyrosine-protein kinase Lck (Homo sapiens) (P06239 2-509 limits assumed): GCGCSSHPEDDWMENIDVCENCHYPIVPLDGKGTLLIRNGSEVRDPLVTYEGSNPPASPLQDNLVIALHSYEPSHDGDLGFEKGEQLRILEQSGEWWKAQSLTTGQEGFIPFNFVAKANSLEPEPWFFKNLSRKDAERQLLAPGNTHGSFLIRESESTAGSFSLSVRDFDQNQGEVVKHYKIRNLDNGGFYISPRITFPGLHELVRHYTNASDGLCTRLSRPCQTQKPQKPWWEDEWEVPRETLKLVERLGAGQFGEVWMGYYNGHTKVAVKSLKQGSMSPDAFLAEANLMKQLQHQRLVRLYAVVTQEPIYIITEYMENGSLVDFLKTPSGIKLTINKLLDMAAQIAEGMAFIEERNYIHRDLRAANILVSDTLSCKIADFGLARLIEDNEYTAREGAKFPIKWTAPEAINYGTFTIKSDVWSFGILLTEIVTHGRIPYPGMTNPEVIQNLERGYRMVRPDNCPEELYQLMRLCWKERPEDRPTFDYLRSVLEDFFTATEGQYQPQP

Mus musculus [24] = assay: Antipsychotic activity in amyloid beta (1 to 42) induced hyperlocomotion in mouse model assessed as decrease in total distance traveled at 10 mg/kg by open field test; assay type: functional, organism-based
[25] = Toxicity in male Beagle dog assessed as change in prolactin at 0.75 to 2.5 mg/kg, IG administered once daily for 4 weeks and measured after 4 weeks; assay type: organism-based, Canis lupus familiaris; details: in vivo, po, 1344 h, dose 0.75-2.5 mg/kg, time 8 weeks
[26] = Toxicity in Sprague-Dawley rat assessed as stereotypy 2.5 to 7.5 mg/kg, po administered once daily for 4 weeks; assay type: organism-based; details: in vivo, 672 h, dose 2.5-7.5 mg/kg
[27] = Drug concentration in male Sprague-Dawley rat brain at 5 mg/kg, IG measured after 0.25 hrs by LC-MS/MS analysis; assay type: ADME, organism-based; details: in vivo, po
[28] = molecular target: Alpha-1A adrenergic receptor (Homo sapiens) (UniProt P35348); assay: Binding affinity to alpha 1A (unknown origin) at 10 uM by radioligand binding assay relative to control
Chain of Alpha-1A adrenergic receptor (Homo sapiens) (P35348 whole entry): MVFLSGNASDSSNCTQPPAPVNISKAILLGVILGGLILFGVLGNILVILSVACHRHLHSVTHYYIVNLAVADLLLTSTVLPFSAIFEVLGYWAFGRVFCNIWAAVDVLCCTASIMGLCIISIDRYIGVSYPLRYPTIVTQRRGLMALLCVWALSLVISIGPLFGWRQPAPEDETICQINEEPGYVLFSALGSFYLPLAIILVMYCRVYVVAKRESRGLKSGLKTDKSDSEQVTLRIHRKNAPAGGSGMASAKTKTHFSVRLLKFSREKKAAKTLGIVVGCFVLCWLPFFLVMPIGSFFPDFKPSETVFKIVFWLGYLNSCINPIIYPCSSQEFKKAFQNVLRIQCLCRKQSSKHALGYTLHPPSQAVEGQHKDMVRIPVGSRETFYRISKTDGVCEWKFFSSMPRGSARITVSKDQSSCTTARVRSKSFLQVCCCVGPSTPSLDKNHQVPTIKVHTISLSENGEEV

[29] = Toxicity in female Beagle dog assessed as somnolence at 2.5 mg/kg, IG administered once daily for 4 weeks and measured after 4 weeks; assay type: organism-based, Canis lupus familiaris; details: in vivo, po, 1344 h, time 8 weeks
[30] = Toxicity in male Beagle dog assessed as change in organ weight at 0.75 to 2.5 mg/kg, IG administered once daily for 4 weeks and measured after 4 weeks; assay type: organism-based, Canis lupus familiaris; details: in vivo, po, 1344 h, dose 0.75-2.5 mg/kg, time 8 weeks
[31] = Toxicity in male Sprague-Dawley rat assessed as minimal corneal neovascularization at 2.5 to 7.5 mg/kg, po administered once daily for 4 weeks and measured after 4 weeks; assay type: organism-based; details: in vivo, 1344 h, dose 2.5-7.5 mg/kg, time 8 weeks
[32] = Toxicity in Sprague-Dawley rat assessed as good general health at 2.5 to 7.5 mg/kg, po administered once daily for 4 weeks and measured after 4 weeks; assay type: organism-based; details: in vivo, 1344 h, dose 2.5-7.5 mg/kg, time 8 weeks
[33] = Toxicity in female Sprague-Dawley rat assessed as suppression of food consumption at 7.5 mg/kg, po administered once daily for 4 weeks and measured weekly twice; assay type: organism-based; details: in vivo, 672 h
[34] = Toxicity in male Sprague-Dawley rat assessed as slow respiration at 7.5 mg/kg, po administered once daily for 4 weeks and measured after 4 weeks; assay type: organism-based; details: in vivo, 1344 h, time 8 weeks
Mus musculus [35] = assay: Antipsychotic activity against MK-801 induced hypermobilization in male C57BL/6J mouse model assessed as reduction in hypermobilization state at 3 mg/kg, IG pretreated with compound followed by MK-801 addition and measured after 30 mins by open field test; assay type: functional, organism-based
[36] = Toxicity in male Beagle dog assessed as change in food consumption at 0.75 to 2.5 mg/kg, IG administered once daily for 4 weeks and measured after 4 weeks; assay type: organism-based, Canis lupus familiaris; details: in vivo, po, 1344 h, dose 0.75-2.5 mg/kg, time 8 weeks
[37] = Ratio of drug concentration in male Sprague-Dawley rat brain to plasma at 5 mg/kg, IG measured after 6 hrs by LC-MS/MS analysis; assay type: ADME, organism-based; details: brain and plasma, po, read-out: BPR
[38] = Toxicity in female Beagle dog assessed as minimal decrease activity at 2.5 mg/kg, IG administered once daily for 4 weeks and measured after 4 weeks; assay type: organism-based, Canis lupus familiaris; details: in vivo, po, 1344 h, time 8 weeks
[39] = Mutagenicity in Salmonella typhimurium TA98 by Ames test; assay type: toxicity; details: salmonella enterica subsp. enterica serovar typhimurium
[40] = molecular target: 5-hydroxytryptamine receptor 2A (Homo sapiens) (UniProt P28223); assay: Binding affinity to 5-HT2A (unknown origin) at 10 uM by radioligand binding assay relative to control
Chain of 5-hydroxytryptamine receptor 2A (Homo sapiens) (P28223 whole entry): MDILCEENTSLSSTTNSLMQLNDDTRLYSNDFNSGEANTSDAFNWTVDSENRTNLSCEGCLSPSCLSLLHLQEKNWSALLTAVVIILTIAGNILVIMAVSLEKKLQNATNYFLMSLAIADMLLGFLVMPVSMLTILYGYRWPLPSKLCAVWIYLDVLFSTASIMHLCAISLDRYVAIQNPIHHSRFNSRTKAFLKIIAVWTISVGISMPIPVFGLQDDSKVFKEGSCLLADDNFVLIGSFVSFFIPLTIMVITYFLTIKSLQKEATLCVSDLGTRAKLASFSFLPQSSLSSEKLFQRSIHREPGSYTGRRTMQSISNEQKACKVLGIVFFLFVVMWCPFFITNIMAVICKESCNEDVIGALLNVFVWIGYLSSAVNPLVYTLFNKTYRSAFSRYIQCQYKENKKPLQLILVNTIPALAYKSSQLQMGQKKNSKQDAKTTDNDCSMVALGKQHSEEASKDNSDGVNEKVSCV

## c1cc2c(s1)[C@@H]1CNCCN1CC2
Mus musculus [1]
  Activity: Dose-dependent-effect
[2]
  Activity: Non-toxic
[3]
  Activity: Non-toxic
[4]
  Emax: 108%
[5]
  Activity: Non-toxic
[6]
  Activity: Non-toxic
[7]
  fraction unbound: 0.668
[8]
  Activity: Non-toxic
[9]
  Activity: Non-toxic
[10]
  EC50: 0.682 µM
[11]
  Activity: Toxic
[12]
  Activity: Non-toxic
[13]
  CLint scaled at 1 µM: < 0.81 L/h/kg
[14]
  Activity: 26.5%
Mus musculus [15]
  Activity: Dose-dependent-effect
[16]
  Activity: Non-toxic
[17]
  Activity: 33.7%
[18]
  Activity: Non-toxic
[19]
  Activity: Toxic
[20]
  Activity: Non-toxic
[21]
  Activity: Non-toxic
[22]
  Activity: Non-toxic
[23]
  Activity: 3.4%
Mus musculus [24]
  Activity: Active
[25]
  Activity: Non-toxic
[26]
  Activity: Non-toxic
[27]
  Ct: 39250 nmol/kg
[28]
  Activity: 55%
[29]
  Activity: Non-toxic
[30]
  Activity: Non-toxic
[31]
  Activity: Non-toxic
[32]
  Activity: Non-toxic
[33]
  Activity: Toxic
[34]
  Activity: Non-toxic
Mus musculus [35]
  Activity: Active; More Effective Than Ulotaront
[36]
  Activity: Non-toxic
[37]
  Kp at 6 h: 4.22
[38]
  Activity: Non-toxic
[39]
  Activity: Non-toxic
[40]
  Activity: 36.5%

Source: ChEMBL document CHEMBL6109139, “Rational Design of the First Dual Agonist at Trace Amine-Associated Receptor 1 and 5-HT2C Receptors Based on Binding Pocket Similarity for the Treatment of Schizophrenia and Alzheimer's Disease-Related Psychosis” (J Med Chem, 2025)
